Results: US20240158446A1, “CYCLIC COMPOUND HAVING SELECTIVE INHIBITORY ACTION ON KRAS OVER HRAS AND NRAS” (CHUGAI SEIYAKU KABUSHIKI KAISHA, priority 2021, published 2024)
Like-named read-outs stand apart in the source and are kept apart here.

How the values were obtained:
[1] = molecular target: GDP-bound KRAS wild-type protein (Homo sapiens, UniProt P01116); experiment: Binding to KRAS by surface plasmon resonance (SPR), Single Cycle Kinetics; conditions: GDP-bound KRAS wild-type protein, read-out: KRAS KD
[2] = molecular target: GDP-bound NRAS wild-type protein (Homo sapiens, UniProt P01111); experiment: Binding to NRAS by surface plasmon resonance (SPR), Single Cycle Kinetics; conditions: for NRAS/KRAS (ratio of KD value with respect to GDP-bound NRAS wild-type protein to KD value with respect to KRAS): SPR KD ratio NRAS/KRAS, class symbols
[3] = molecular target: GDP-bound HRAS wild-type protein (Homo sapiens, UniProt P01112); experiment: Binding to HRAS by surface plasmon resonance (SPR), Single Cycle Kinetics; conditions: for HRAS/KRAS (ratio of KD value with respect to GDP-bound HRAS wild-type protein to KD value with respect to KRAS): SPR KD ratio HRAS/KRAS, class symbols
[4] = system: human lung cancer strain NCI-H441;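 further: cell proliferation inhibition after four days measured by CellTiter-Glo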
[5] = SPR, GDP-bound NRAS wild-type protein vs GDP-bound KRAS wild-type protein
[6] = SPR, GDP-bound HRAS wild-type protein vs GDP-bound KRAS wild-type protein
[7] = SPR Single Cycle Kinetics, 1:1 binding model
[8] = SPR, Single Cycle Kinetics, 1:1 binding model
[9] = SPR, GDP-bound NRAS wild-type protein vs GDP-bound KRAS wild-type protein, KD ratio class
[10] = SPR, GDP-bound HRAS wild-type protein vs GDP-bound KRAS wild-type protein, KD ratio class

GDP-bound KRAS wild-type protein, sequence (P01116 whole entry): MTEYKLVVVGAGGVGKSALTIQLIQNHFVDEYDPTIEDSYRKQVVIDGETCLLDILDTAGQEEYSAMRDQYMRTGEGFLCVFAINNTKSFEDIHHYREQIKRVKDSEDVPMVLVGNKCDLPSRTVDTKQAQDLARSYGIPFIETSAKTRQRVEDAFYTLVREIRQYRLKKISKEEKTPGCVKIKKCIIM
GDP-bound HRAS wild-type protein, sequence (P01112 whole entry): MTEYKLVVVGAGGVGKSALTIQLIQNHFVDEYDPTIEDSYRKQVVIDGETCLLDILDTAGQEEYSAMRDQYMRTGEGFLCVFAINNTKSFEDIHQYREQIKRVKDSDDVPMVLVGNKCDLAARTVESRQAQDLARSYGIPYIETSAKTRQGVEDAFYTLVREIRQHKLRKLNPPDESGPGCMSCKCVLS
GDP-bound NRAS wild-type protein, sequence (P01111 whole entry): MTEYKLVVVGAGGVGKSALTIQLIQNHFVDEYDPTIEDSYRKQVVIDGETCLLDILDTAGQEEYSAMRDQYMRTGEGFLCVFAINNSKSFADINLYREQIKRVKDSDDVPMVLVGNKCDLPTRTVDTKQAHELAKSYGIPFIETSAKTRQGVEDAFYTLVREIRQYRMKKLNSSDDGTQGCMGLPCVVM

SMILES | Kd ([1]; SPR, Single Cycle Kinetics) [nM] | IC50 [4] [nM] | Kd [1, 8] [nM] | NRAS/KRAS (ratio of KD value for NRAS to KD value for KRAS) [2, 5] | HRAS/KRAS (ratio of KD value for HRAS to KD value for KRAS) [3, 6] | NRAS/KRAS (ratio of KD value for NRAS to KD value for KRAS) [2, 9] | HRAS/KRAS (ratio of KD value for HRAS to KD value for KRAS) [3, 10] | also measured
CCC(CC)[C@H]1C(=O)N(C)[C@H](C(=O)N(C)C)CC(=O)N(C)[C@@H](COC)C(=O)N[C@@H]([C@@H](C)CC)C(=O)N(C2CC2)CC(=O)N(C)[C@H]2C/C=C\CCN(C2=O)[C@@H](Cc2ccc(C)cc2)C(=O)N(C)CC(=O)N[C@@H](CCc2ccc(Cl)c(Cl)c2)C(=O)N2C[C@H](OC(C)C)C[C@H]2C(=O)NC2(CC(C)(C)C2)C(=O)N1C (stereo in doubt) [PP2509] | 2.6 | 91.3 |  | AA (a compound having 20 or more is denoted as AA) | A (a compound having 10 or more and less than 20 is denoted as A) |  |  | 
CC[C@H](C)[C@@H]1NC(=O)[C@H](COC)N(C)C(=O)C[C@@H](C(=O)N(C)C)N(C)C(=O)[C@H](C2CCCC2)N(C)C(=O)C2(CC(C)(C)C2)NC(=O)[C@@H]2C[C@@H](OC3CCCC3)CN2C(=O)[C@H](CCc2cc(F)c(C(F)(F)F)c(F)c2)NC(=O)CN(C)C(=O)[C@H](CC2CCCCC2)N2CC/C=C\C[C@@H](C2=O)N(C)C(=O)CN(C2CC2)C1=O [PP2630] |  | 190 |  |  |  |  |  | Kd [1, 7]: 3 nM; NRAS/KRAS (ratio of KD value with respect to GDP-bound NRAS wild-type protein to KD value with respect to KRAS) [2]: A (a compound having 10 or more and less than 20 is denoted as A); HRAS/KRAS (ratio of KD value with respect to GDP-bound HRAS wild-type protein to KD value with respect to KRAS) [3]: B (a compound having 3 or more and less than 10 is denoted as B)
CCO[C@@H]1C[C@H]2C(=O)NC3(CCC3)C(=O)N(C)[C@@H](C(CC)CC)C(=O)N(C)[C@H](C(=O)N(C)C)CC(=O)N(C)[C@@H](CC3CCCC3)C(=O)N[C@@H]([C@@H](C)CC)C(=O)N(C)CC(=O)N(C)[C@H]3C/C=C\CCN(C3=O)[C@@H](CC3CCC(F)(F)CC3)C(=O)N(C)CC(=O)N[C@@H](CCc3cc(F)c(C(F)(F)F)c(F)c3)C(=O)N2C1 [PP1431] |  | 41.2 | 0.57 |  |  | AA (a compound having 20 or more is denoted as AA) | A (a compound having 10 or more and less than 20 is denoted as A) | 
CCO[C@@H]1C[C@H]2C(=O)NC3(CCC3)C(=O)N(C)[C@@H](C(CC)CC)C(=O)N(C)[C@H](C(=O)N(C)C)CC(=O)N(C)[C@@H](CC(C)C)C(=O)N[C@@H]([C@@H](C)CC)C(=O)N(C)CC(=O)N(C)[C@H]3C/C=C\CCN(C3=O)[C@@H](Cc3ccc(C(F)(F)F)cc3)C(=O)N(C)CC(=O)N[C@@H](CCc3cc(F)c(Cl)c(F)c3)C(=O)N2C1 [PP1232] |  | 59.7 | 0.67 |  |  | A (a compound having 10 or more and less than 20 is denoted as A) | A (a compound having 10 or more and less than 20 is denoted as A) | 
CC[C@H](C)[C@@H]1NC(=O)[C@H](CC)N(C)C(=O)C[C@@H](C(=O)N(C)C)N(C)C(=O)[C@H](C2CCCC2)N(C)C(=O)C2(CCC2)NC(=O)CN(CC)C(=O)[C@H](CCc2cc(F)c(C(F)(F)F)c(F)c2)NC(=O)CN(C)C(=O)[C@H](Cc2ccc(C(F)(F)F)cc2)N2CC/C=C\C[C@@H](C2=O)N(C)C(=O)CN(C)C1=O [PP1143] | 0.17 | 75.3 |  | A (a compound having 10 or more and less than 20 is denoted as A) | A (a compound having 10 or more and less than 20 is denoted as A) |  |  | 
CCC[C@H]1C(=O)N[C@@H](CC(C)C)C(=O)N(CCOC)CC(=O)N(C)[C@H]2C/C=C\CCN(C2=O)[C@@H](Cc2ccc(C)cc2)C(=O)N(C)CC(=O)N[C@@H](CCc2cc(F)c(C(F)(F)F)c(F)c2)C(=O)N2C[C@H](OCC)C[C@H]2C(=O)NC2(CCC2)C(=O)N(C)[C@@H](C2CCCC2)C(=O)N(C)[C@H](C(=O)N(C)C)CC(=O)N1C [PP2541] |  | 374 |  |  |  |  |  | Kd [1, 7]: 4.9 nM; NRAS/KRAS (ratio of KD value with respect to GDP-bound NRAS wild-type protein to KD value with respect to KRAS) [2]: A (a compound having 10 or more and less than 20 is denoted as A); HRAS/KRAS (ratio of KD value with respect to GDP-bound HRAS wild-type protein to KD value with respect to KRAS) [3]: B (a compound having 3 or more and less than 10 is denoted as B)
CC[C@H](C)[C@@H]1NC(=O)[C@@H]2CCCCCN2C(=O)C[C@@H](C(=O)N2CCOCC2)N(C)C(=O)[C@H](C2CCCC2)N(C)C(=O)C2(CCCC2)NC(=O)[C@@H]2CCCN2C(=O)[C@H](CCc2cc(F)c(C(F)(F)F)c(F)c2)NC(=O)CN(C)C(=O)[C@H](Cc2ccc(C(F)(F)F)cc2)N2CCCC[C@@H](C2=O)N(C)C(=O)CN(C)C1=O [PP0595] |  | 80 |  |  |  |  |  | Kd [1, 7]: 1 nM; NRAS/KRAS (ratio of KD value with respect to NRAS to KD value with respect to KRAS) [2, 5]: C (A compound having a KD ratio of 0.1 or more and less than 3 is denoted as C); HRAS/KRAS (ratio of KD value with respect to HRAS to KD value with respect to KRAS) [3, 6]: B (a compound having 3 or more and less than 10 is denoted as B)
CCO[C@@H]1C[C@H]2C(=O)NC3(CCC3)C(=O)N(C)[C@@H](C3CCCC3)C(=O)N(C)[C@H](C(=O)N(C)C)CC(=O)N(C)[C@@H](CC)C(=O)N[C@@H]([C@@H](C)CC)C(=O)N(C)CC(=O)N(C)[C@H]3C/C=C\CCN(C3=O)[C@@H](Cc3ccc(C(F)(F)F)cc3)C(=O)N(C)CC(=O)N[C@@H](CCc3ccc4sccc4c3)C(=O)N2C1 [PP1255] |  | 156 | 0.39 |  |  | A (a compound having 10 or more and less than 20 is denoted as A) | A (a compound having 10 or more and less than 20 is denoted as A) | 

Stronger by IC50 [4], values ahead:

Kd ([1]; SPR, Single Cycle Kinetics) [nM] | IC50 [4] [nM] | Kd [1, 8] [nM] | SMILES | NRAS/KRAS (ratio of KD value for NRAS to KD value for KRAS) [2, 5] | HRAS/KRAS (ratio of KD value for HRAS to KD value for KRAS) [3, 6] | NRAS/KRAS (ratio of KD value for NRAS to KD value for KRAS) [2, 9] | HRAS/KRAS (ratio of KD value for HRAS to KD value for KRAS) [3, 10] | also measured
 | 36.6 | 0.19 | CCO[C@@H]1C[C@H]2C(=O)NC3(CCCC3)C(=O)N(C)[C@@H](C3CCCC3)C(=O)N(C)[C@H](C(=O)N(C)C)CC(=O)N(C)[C@@H](CC(C)C)C(=O)N[C@@H]([C@@H](C)CC)C(=O)N(C)CC(=O)N(C)[C@H]3C/C=C\CCN(C3=O)[C@@H](CC3CCCCC3)C(=O)N(C)CC(=O)N[C@@H](CCc3cc(F)c(C(F)(F)F)c(F)c3)C(=O)N2C1 [PP1473] |  |  | A (a compound having 10 or more and less than 20 is denoted as A) | A (a compound having 10 or more and less than 20 is denoted as A) | 
 | 15.2 | 0.096 | C=CC[C@H]1C(=O)N[C@@H]([C@@H](C)CC)C(=O)N(C)CC(=O)N(C)[C@H]2C/C=C\CCN(C2=O)[C@@H](CC2CCC(F)(F)CC2)C(=O)N(C)CC(=O)N[C@@H](CCc2cc(F)c(C(F)(F)F)c(F)c2)C(=O)N2C[C@H](OCC)C[C@H]2C(=O)NC2(CCC2)C(=O)N(C)[C@@H](C2CCCC2)C(=O)N(C)[C@H](C(=O)N(C)C)CC(=O)N1C [PP1454, (2S,8S,12R,14S,20S,23S,27S,30S,36S,38Z)-27-allyl-20-cyclopentyl-2-[(4,4-difluorocyclohexyl)methyl]-8-[2-[3,5-difluoro-4-(trifluoromethyl)phenyl]ethyl]-12-ethoxy-N,N,4,19,22,26,32,35-octamethyl-30-[(1S)-1-methylpropyl]-3,6,9,15,18,21,25,28,31,34,42-undecaoxo-spiro[1,4,7,10,16,19,22,26,29,32,35-undecazatricyclo[34.5.1.0^10,14]dotetracont-38-ene-17,1′-cyclobutane]-23-carboxamide] |  |  | A (a compound having 10 or more and less than 20 is denoted as A) | A (a compound having 10 or more and less than 20 is denoted as A) | 
0.036 | 13 |  | CCCO[C@@H]1C[C@H]2C(=O)NC3(CCC3)C(=O)N(C)[C@@H](C3CCCC3)C(=O)N(C)[C@H](C(=O)N3CCOCC3)CC(=O)N(C)[C@@H](CC(C)C)C(=O)N[C@@H]([C@@H](C)CC)C(=O)N(C)CC(=O)N(C)[C@H]3CCCCN(C3=O)[C@@H](Cc3ccc(C(F)(F)F)cc3)C(=O)N(C)CC(=O)N[C@@H](CCc3cc(F)c(C(F)(F)F)c(F)c3)C(=O)N2C1 [PP1159] | C (A compound having a KD ratio of 0.1 or more and less than 3 is denoted as C) | B (a compound having 3 or more and less than 10 is denoted as B) |  |  | 
0.12 | 8.3 |  | CCOC[C@H]1C(=O)N[C@@H]([C@@H](C)CC)C(=O)N(C)CC(=O)N(C)[C@H]2C/C=C\CCN(C2=O)[C@@H](Cc2ccc(C)cc2)C(=O)N(C)CC(=O)N[C@@H](CCc2ccc(C(F)(F)F)c(Cl)c2)C(=O)N2C[C@@H](C)C[C@H]2C(=O)NC2(CC(C)(C)C2)C(=O)N(C)[C@@H](C2CCCC2)C(=O)N(C)[C@H](C(=O)N(C)C)CC(=O)N1C [PP2394] | A (a compound having 10 or more and less than 20 is denoted as A) | B (a compound having 3 or more and less than 10 is denoted as B) |  |  | 
0.16 | 15.3 |  | CCCOC[C@H]1C(=O)N[C@@H]([C@@H](C)CC)C(=O)N(C)CC(=O)N(C)[C@H]2C/C=C\CCN(C2=O)[C@@H](Cc2ccc(C)cc2)C(=O)N(C)CC(=O)N[C@@H](CCc2cc(F)c(C(F)(F)F)c(F)c2)C(=O)N2C[C@@H](C)C[C@H]2C(=O)NC2(CC(C)(C)C2)C(=O)N(C)[C@@H](C2CCCC2)C(=O)N(C)[C@H](C(=O)N(C)CC)CC(=O)N1C [PP2471] | A (a compound having 10 or more and less than 20 is denoted as A) | A (a compound having 10 or more and less than 20 is denoted as A) |  |  | 
